# Measurements reported in patent publication US8835124B2, “Method for treating cancer with agents that bind phosphorylated CDC27” (The Nemours Foundation, priority 2011, dated 2014).
# Experiments:
# Cdc27 [1] = biological target: T1, Cdc27 (Homo sapiens, UniProt P30260); experiment: Cdc27 immunoblot, molecular weight shift (crosslinking) in treated DAOY cells; format: cell-based
# T1 construct: endogenous in cells; host or cells: DAOY medulloblastoma cells
# Procedure: Cell lysates were prepared in a buffer containing 20 mM Iris (pH 7.5), 150 mM NaCl, 1 mM EDTA, 1 mM EGTA, 0.1% Triton X-100, 2.5 mM sodium pyrophosphate, 1 mM β-glycerol phosphate, 1 mM sodium vanadate, 1 mM phenylmethylsulfonyl fluoride and 5 μg/ml of antipapain, leupeptin and pepstatin (protease inhibitor cocktail). Protein concentrations were determined by the Dc protein assay (Bio-Rad, Hercules, Calif.). Equal amounts of protein were resolved by SDS-PAGE and transferred to nitrocellulose. The membranes were blocked in 5% non-fat milk in Tris-buffered saline with 0.1% Tween-20 (TBST). Primary antibodies diluted in 5% bovine serum albumin/TBST were incubated overnight at 4° C. and HRP-conjugated secondary antibodies in 5% non-fat milk/TBST for 2 hours at room temperature. Protein bands were visualized by Enhanced Chemiluminescence Plus (GE Healthcare, Piscataway, N.J.).
# HT1376 cells = experiment: LDH release cytotoxicity assay; format: cell-based; details: 24 hours, 0, 5, 10 and 20 μM; low phosphorylated Cdc27
# Procedure: (§2) Lactate dehydrogenase (LDH) levels as a measure of cell death were determined using the Non-radioactive Cytotoxicity kit (Promega, Madison, Wis.) according to manufacturer's instructions. […] Cell debris was removed by centrifugation. Viable cell LDH was collected from cells lysed by freezing for 15 minutes at −70° C. followed by thawing at 37° C. The medium was collected and cleared from cell debris by centrifugation. The relative release of LDH was determined as the ratio of released LDH versus total LDH from viable cells.
# acetylated tubulin = experiment: Acetylated tubulin accumulation in cell lines; format: cell-based; details: cells with low levels of phosphorylated Cdc27; 20 μM curcumin for 0, 4, 8 and 24 hours
# Procedure: Accumulation of acetylated tubulin was assayed. […] Thus, loss of Cdc27 function or p55Cdc20 association with Cdc27 may be linked to increased tubulin acetylation in curcumin-treated cells.
# Cdc27 [2] = biological target: T1, Cdc27; experiment: Pull-down from DAOY cell lysates with curcumin-bound Sepharose beads; format: binding; details: two independent bead preparations, vs control beads
# Procedure: After washing, unoccupied binding sites were blocked with 1 M ethanolamine by overnight incubation. Low (0.1 M acetate buffer, pH 4) and high (0.1 M Tris-HCl, pH 8, 0.5 M NaCl) pH buffers were used each three times to wash and equilibrate the beads. Control beads were prepared in parallel with curcumin-coupled beads but curcumin was omitted. DAOY cell lysates were prepared in a lysis buffer of 100 mM HEPES, pH 7.6, 300 mM NaCl, 0.1% Triton X-100, 2 mM EDTA, 2 mM EGTA supplemented with phosphatase and protease inhibitors. 500 μg of protein was mixed with 20 μl of curcumin-coupled Sepharose beads and incubated for 3 hours at 4° C. After washing bound proteins were eluted with 1×SDS-PAGE sample buffer and processed for immunoblotting.
# DAOY cell lysates were incubated with curcumin-bound Sepharose beads and then subjected to SDS-PAGE and immunoblotting with Cdc27. A BubR1 immunoblot was included as control for non-specific binding. […] The cell lysates were separated by SDS-PAGE and immunoblotted for Cdc27. […] Data represent mean±SEM of three independent experiments.
# MDCK cells = experiment: LDH release cytotoxicity assay; format: cell-based; details: 24 hours, 0, 5, 10 and 20 μM; low phosphorylated Cdc27
# Procedure: as §2
# DAOY cells = experiment: LDH release cytotoxicity assay; format: cell-based, human; details: 24 hours, 0, 5, 10 and 20 μM; high phosphorylated Cdc27
# Procedure: as §2
# [3] = system: APC2, p55Cdc20, cyclins A and E, APC7, APC8; experiment: Immunoblotting of APC/C subunits and other cell cycle related proteins in DAOY cells; format: cell-based, human; details: control vs curcumin-treated DAOY cells, immunoblot
# Procedure: (§1) Cell lysates were prepared in a buffer containing 20 mM Tris (pH 7.5), 150 mM NaCl, 1 mM EDTA, 1 mM EGTA, 0.1% Triton X-100, 2.5 mM sodium pyrophosphate, 1 mM β-glycerol phosphate, 1 mM sodium vanadate, 1 mM phenylmethylsulfonyl fluoride and 5 μg/ml of antipapain, leupeptin and pepstatin (protease inhibitor cocktail). Protein concentrations were determined by the Dc protein assay (Bio-Rad, Hercules, Calif.). Equal amounts of protein were resolved by SDS-PAGE and transferred to nitrocellulose. The membranes were blocked in 5% non-fat milk in Tris-buffered saline with 0.1% […] (TBST). Primary antibodies diluted in 5% bovine serum albumin/TBST were incubated overnight at 4° C. and HRP-conjugated secondary antibodies in 5% non-fat milk/TBST for 2 hours at room temperature. Protein bands were visualized by Enhanced Chemiluminescence Plus (GE Healthcare, Piscataway, N.J.).
# Cell lysates were prepared in a buffer containing 20 mM Iris (pH 7.5), 150 mM NaCl, 1 mM EDTA, 1 mM EGTA, 0.1% Triton X-100, 2.5 mM sodium pyrophosphate, 1 mM β-glycerol phosphate, 1 mM sodium vanadate, 1 mM phenylmethylsulfonyl fluoride and 5 μg/ml of antipapain, leupeptin and pepstatin (protease inhibitor cocktail). Protein concentrations were determined by the Dc protein assay (Bio-Rad, Hercules, Calif.). Equal amounts of protein were resolved by SDS-PAGE and transferred to nitrocellulose. […]
# medulloblastoma = medulloblastoma in vivo model; cited from earlier work
# Cdc27 [4] = experiment: Cdc27 immunoblot of cell lines after curcumin treatment; format: cell-based; details: 20 μM curcumin for 0, 4, 8 and 24 hours; DAOY, NT2, D283 Med, D341 Med, HCT116, HT1376, RT4, MDCK
# Procedure: as §1
# The cell lines DAOY, NT2, D283 Med, D341 Med (brain); HCT116 (colon); HT1376, RT4 (bladder); MDCK (kidney) were screened for Cdc27 phosphorylation by immunoblot of Cdc27. […] Actin immunoblot is shown as loading control.
# Arrows indicate crosslinked Cdc27, while arrowheads show phosphorylated Cdc27. Equal amounts of protein were used as shown by actin immunoblot.
# medulloblastoma cells = details: cited from earlier work
# T1 sequence (P30260 1-830 isoform P30260-2): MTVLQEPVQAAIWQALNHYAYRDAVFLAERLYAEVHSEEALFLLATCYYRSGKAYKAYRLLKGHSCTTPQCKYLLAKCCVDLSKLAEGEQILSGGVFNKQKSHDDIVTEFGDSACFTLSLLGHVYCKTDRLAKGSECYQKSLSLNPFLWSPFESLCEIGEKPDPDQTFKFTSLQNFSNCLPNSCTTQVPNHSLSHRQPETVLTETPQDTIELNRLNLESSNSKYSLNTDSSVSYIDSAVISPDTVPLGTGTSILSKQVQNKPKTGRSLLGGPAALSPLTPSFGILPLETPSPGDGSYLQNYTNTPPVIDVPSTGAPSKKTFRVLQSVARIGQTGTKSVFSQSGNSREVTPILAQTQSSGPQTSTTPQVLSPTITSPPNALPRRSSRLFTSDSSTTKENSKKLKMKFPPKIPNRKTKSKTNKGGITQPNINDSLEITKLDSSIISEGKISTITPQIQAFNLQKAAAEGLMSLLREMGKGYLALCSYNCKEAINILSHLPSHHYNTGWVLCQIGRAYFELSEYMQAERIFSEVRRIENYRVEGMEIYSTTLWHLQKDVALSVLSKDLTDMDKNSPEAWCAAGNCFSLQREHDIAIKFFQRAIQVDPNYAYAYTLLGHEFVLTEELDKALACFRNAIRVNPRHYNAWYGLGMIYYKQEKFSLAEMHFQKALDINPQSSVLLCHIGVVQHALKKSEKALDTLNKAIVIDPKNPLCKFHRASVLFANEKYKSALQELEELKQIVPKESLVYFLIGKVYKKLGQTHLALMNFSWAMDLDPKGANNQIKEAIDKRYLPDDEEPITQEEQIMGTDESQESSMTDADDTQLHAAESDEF
smiles,measurement,setting,value
"COc1cc(/C=C/C(=O)CC(=O)/C=C/c2ccc(O)c(OC)c2)ccc1O [Curcumin, (E,E)-1,7-bis(4-hydroxy-3-methoxyphenyl)-1,6-heptadiene-3,5-dion]",induction of high molecular weight bands of Cdc27 (crosslinking),"Cdc27 [1]; DAOY, 0, 3, 6, 9 or 24 hours",induces the formation of Cdc27 dimers
same,high molecular weight (MW) band of Cdc27,"Cdc27 [1]; curcumin-treated DAOY cells, immunoblot",approximately double the MW of Cdc27
same,sensitivity to curcumin-induced apoptosis (LDH release),HT1376 cells,almost unaffected
same,curcumin-induced tubulin acetylation,acetylated tubulin,reduced
same,pull-down of Cdc27 by curcumin-bound Sepharose beads,Cdc27 [2],pulled down Cdc27
same,sensitivity to curcumin-induced apoptosis (LDH release),MDCK cells,almost unaffected
same,sensitivity to curcumin-induced apoptosis (LDH release),DAOY cells,most sensitive
same,expression of cyclin A and E,[3],No noticeable changes
same,levels of APC2 and p55Cdc20,[3],comparable in control and curcumin-treated cells
same,medulloblastoma growth,medulloblastoma,can inhibit medulloblastoma growth
same,crosslinking of Cdc27 in cell lines,Cdc27 [4],Only in cell lines with the phosphorylated form of Cdc27 was curcumin able to crosslink Cdc27
same,cell cycle arrest and apoptosis,medulloblastoma cells,induces G2/M arrest and apoptosis
